Test system: BALB/c mice
Assay: In vivo safety: ALAT and ASAT from blood, body weight
Set-up: species or system mouse
Protocol: For in vivo studies, the pLuc was mixed with the CPP at CR2 in MilliQ water, wherein the dose per animal was 2.5 mg/kg. After 30 min of incubation at room temperature, glucose was added to the complexes to obtain an isotonic solution with a final injection volume of 336 µL, which was immediately injected intravenously via the tail vein.
In vivo safety was evaluated by measuring the alanine aminotransferase and the aspartate aminotransferase levels from the blood of mice injected with nanoparticles formed between NF55 analogues and pDNA. Additionally, the mice were weighed preinjection with the CPP-pDNA complexes and prior to sacrifice. […]
1 – Alanine aminotransferase 2 – Aspartate aminotransferase

[1] = blood of mice injected i.v. with CPP/pDNA nanoparticles, pLuc 2.5 mg/kg, CR2

SMILES: CCCCCCCCCCCCCCCCCC(=O)N[C@@H](C)C(=O)NCC(=O)N[C@@H](Cc1ccc(O)cc1)C(=O)N[C@@H](CC(C)C)C(=O)N[C@@H](CC(C)C)C(=O)NCC(=O)NCCC[C@H](N)C(=O)N[C@H](C(=O)N[C@@H](CC(N)=O)C(=O)N[C@@H](CC(C)C)C(=O)N[C@@H](CCCCN)C(=O)N[C@@H](C)C(=O)N[C@@H](CC(C)C)C(=O)N[C@@H](C)C(=O)N[C@@H](C)C(=O)N[C@@H](CC(C)C)C(=O)N[C@@H](C)C(=O)N[C@@H](CCCCN)C(=O)N[C@@H](C)C(=O)N[C@H](C(=O)N[C@@H](CC(C)C)C(N)=O)[C@@H](C)CC)[C@@H](C)CC [NF55]
- ALAT (alanine aminotransferase) [1]: 629
- ASAT (aspartate aminotransferase) [1]: 184
- Pre-injection weight (weight of mice before injecting with CPP/pDNA nanoparticles): 26.96 grams
- Post-injection weight (weight of mice before sacrificing for ex vivo tissue analysis): 25.35 grams

Source: PMC10051810, “Modification of the Linker Amino Acid in the Cell-Penetrating Peptide NickFect55 Leads to Enhanced pDNA Transfection for In Vivo Applications” (Pharmaceutics, 2023)
